Measurements reported in publication PMC2567432 (PLoS ONE, 2008).

Columns and labels:
JIMT-1 cells = test: Cellular ATP content (CellTiter-Glo), JIMT-1; assay type: cell-based, human; settings: JIMT-1, 6 h; curcumin 0–100 µM, MGO 0–1000 µM
Protocol: (§1) Cellular ATP content was determined using the CellTiter-Glo® Luminescent Cell Viability Assay. Data represent the mean±S.D. of independent experiments (n = 12).
(§2) Cell ATP content was determined by means of the CellTiter-Glo® Luminescent Cell Viability Assay according to the manufacturer's instructions (Promega, Madison, USA). […] After 6-h incubation, cells were mixed with test reagents and luminescence was read according to the manufacturer's instructions. A standard curve was prepared from ATP (1 µM to 10 nM) in medium.

[1] = tested on: breast cancer JIMT-1 cells; test: Cell proliferation WST-1 assay, JIMT-1; assay type: cell-based, human; settings: JIMT-1, 24 h, WST-1, increasing concentrations
Protocol: (§3) Figure 3 Growth inhibition of different tumor cell lines by polyphenols. […] Following 24-h incubation, cell proliferation was evaluated using the WST-1 assay.
(§4) Tumor cells were cultured in RPMI medium containing 10% fetal calf serum (RPMI-FCS) (PC-3, JIMT-1, MDA-MD 231) or in DMEM-FCS (astrocytoma 1321N1 cells) containing penicillin/streptomycin (100 U penicillin/ml; 100 µg streptomycin/ml) at 37°C/5% CO2. Cytosolic protein extracts of tumor cells were prepared using extraction buffer composed of 25 mM Tris, 2 mM EDTA, 10% Glycerol, 1% Triton ×100, 2 mM DTT, 1mM PMSF, pH. 7.0 containing 0.3% protease inhibitor cocktail. Protein content was determined according to Bradford. Specific activity of enzymes analyzed in cell extracts was expressed as U/mg protein.
(§5) Cell proliferation/vitality of tumor cells (96-well plates; 5000 cells/well) and primary human hepatocytes (24-well plates; 0.25×10^6 cells/well) was assayed using the WST-1 assay according to manufacturer's instructions. Trypan blue exclusion was performed by staining cells with 0.4% aqueous trypan blue solution according to the manufacturer's instructions.

[2] = tested on: brain astrocytoma 1321N1 cells; test: Cell proliferation WST-1 assay, 1321N1; assay type: cell-based; settings: 1321N1, 24 h; for anti-proliferative effect compared to curcumin: WST-1
Protocol: as §3, §4, §5

astrocytoma 1321N1 cells = test: Cellular ATP content (CellTiter-Glo), 1321N1; assay type: cell-based; settings: 1321N1, 6 h; curcumin 0–100 µM, MGO 0–1000 µM
Protocol: as §1, §2

[3] = tested on: IL-1β release from LPS-stimulated blood cells; test: Whole blood assay, LPS-induced IL-1β release (cytometric bead array); assay type: cell-based; settings: Homo sapiens; heparinized whole blood, LPS 10 ng/ml, 6 h, 37°C
Protocol: Figure 2 Effect of polyphenols on IL-1β release from LPS-stimulated blood cells. Heparinized whole blood was stimulated by LPS in the absence or presence of polyphenols at increasing concentrations and incubated for 6 h at 37°C with 5% CO2. (A) Released IL-1β as measured in cell supernatants. Samples without additives but LPS were set at 100%. (B) The calculated […] values of the respective polyphenols. Data represent mean±S.D. of independent experiments (n = 6).
Whole blood assay was performed as previously described. Accordingly, LPS (10 ng/ml), test substances and 200 µl heparinized human blood of healthy donors, obtained from the blood bank of the University of Leipzig, were co-incubated with serum-free medium (RPMI-SF, 1 ml final volume) in 24-well culture plates for 6 h at 37°C with 5% CO2. Samples were removed, centrifuged at 2000×g for 10 min and supernatants were stored at −20°C until assaying for inflammatory cytokines.
Assessment of cytokine levels in supernatants of human blood cell cultures was accomplished using Cytometric Bead Array (CBA™, BD Biosciences, San Jose, U.S.A). The procedure was carried out according to the manufacturer's instruction. Fluorescence measurement and analysis were performed using a FACSCalibur and the CellQuest software (BD Biosciences).

glyoxalase 1 (Glo1) = biological target: T1, glyoxalase 1 (Glo1) (Homo sapiens, UniProt Q04760); test: Inhibition of purified glyoxalase 1 activity (Dixon plot); assay type: biochemical; settings: purified Glo1 70 mU, substrates MGO and GSH, Dixon plot
T1 construct: Glo1 was purified from human erythrocytes as described earlier; from tissue; host or cells: human erythrocytes
T1 sequence (Q04760 2-184 limits assumed): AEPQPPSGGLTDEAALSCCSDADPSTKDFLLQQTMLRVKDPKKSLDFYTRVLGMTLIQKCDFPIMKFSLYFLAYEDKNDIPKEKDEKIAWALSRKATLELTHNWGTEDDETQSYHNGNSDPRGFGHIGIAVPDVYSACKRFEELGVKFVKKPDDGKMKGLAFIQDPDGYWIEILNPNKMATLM
Protocol: Purified Glo1 (70 mU) was incubated with increasing concentrations of different polyphenols at three substrate concentrations; and enzyme activity was recorded (n = 3). The inhibitor concentration was plotted vs. the reciprocal of enzyme activity (1/v) in Dixon plots.
Glo1 was purified from human erythrocytes as described earlier. Briefly, erythrocytes were treated with butanol/chloroform to denature hemoglobin followed by acetone and ammonium sulphate fractionation.
The determination of Glo1 (E.C.4.4.1.5) activity has been described previously. […] The inhibition constant, Ki value of the inhibitors was evaluated by Dixon plot showing the reciprocal of enzyme velocity against the inhibitor concentration at variable concentrations of the substrate. Human Glo2 (E.C.3.1.2.6) was measured using the substrate S-lactoylglutathione as described earlier.
A goodness-of-fit criterion (Akaike's information criterion, AIC) was used for falsification of incompatible inhibition models. […] Spearman's rank correlation test was applied to evaluate the correlation between the IC50 values of pro-inflammatory cytokine release and the Ki-values of various polyphenols. Data were presented as means±S.D. of at least three independent experiments. […] In all other tests, significance has been considered at values of p<0.05.

SMILES | IC50 [3] [µM] | Ki (glyoxalase 1 (Glo1)) [µM] | anti-proliferative effect compared to curcumin [2] | other results
CC(=O)C=O [MGO, methylglyoxal, reference compound] |  |  |  | cellular ATP content (JIMT-1 cells): comparable effects; effect on cell proliferation [1]: anti-proliferative properties; effect on cell proliferation ([2]; WST-1, increasing concentrations): anti-proliferative properties; cellular ATP content (astrocytoma 1321N1 cells): comparable effects
O=c1c(O)c(-c2ccc(O)cc2)oc2cc(O)cc(O)c12 [kaempferol] | 34.6 | 21 ± 3.8 |  | 
O=c1cc(-c2ccc(O)c(O)c2)oc2cc(O)cc(O)c12 [luteolin] | 68 | 35 ± 6.3 |  | 
O=c1c(O)c(-c2cc(O)c(O)c(O)c2)oc2cc(O)cc(O)c12 [myricetin] |  |  | less anti-proliferative | 
O=c1c(O)c(-c2ccc(O)c(O)c2)oc2cc(O)cc(O)c12 [quercetin] | 20 |  | less anti-proliferative | 
C[C@@H]1O[C@@H](OC[C@H]2O[C@@H](Oc3c(-c4ccc(O)c(O)c4)oc4cc(O)cc(O)c4c3=O)[C@H](O)[C@@H](O)[C@@H]2O)[C@H](O)[C@H](O)[C@H]1O [rutin] |  | 140 ± 15 |  | 
